From patent publication US20110105474A1, “HETEROCYCLIC DERIVATIVES AS HDAC INHIBITORS” (DAC S.r.l., priority 2008, published 2011) come the findings set out here.

Where a name gives a salt, the structure may show the parent alone. A value given as a limit tells only on which side of the number the result lay.

Common to all, as to assay type: cell-based
The test system of one assay is K562 cells. The assay is described as follows: Cell growth, CellTiter-Glo Luminescent Cell Viability Assay, K562. The following applies: Homo sapiens, 72 h incubation. The text has this:
(§1) CellTiter-Glo® Luminescent Cell Viability Assay (Promega) is a homogeneous method of determining the number of viable cells in culture based on quantitation of the present ATP, which indicates the presence of metabolically active cells. The homogeneous assay procedure involves addition of a single reagent (CellTiter-Glo®Reagent) directly to the cells, which leads to cell lysis and generation of a luminescent signal proportional to the amount of the ATP and the number of cells present in culture. The assay relies on the properties of a proprietary thermostable luciferase (Ultra-Glo® recombinant luciferase), which generates a luminescent signal.
(§2) K562, A549 and HCT-116 cells, in exponential growth, were incubated for 72 h with different concentrations of the inhibitors. After 72 h, a volume of CellTiter-Glo® Reagent equal to the volume of cell culture medium was added. The content was mixed for 2 min to induce cell lysis. The luminescence was recorded after further 10 min at RT in order to obtain a stabilized luminescent signal.
(§3) The IC50 was calculated using GraphPad Software.
(§4) IC50 results were allocated to one of 3 ranges as follows: Range A: IC50≦1.0 μM; Range B: from 1.0 to 3.0 μM; Range C: IC50≧3.0 μM.

The next assay concerns A549 cells. Nature of the assay: Cell growth, CellTiter-Glo Luminescent Cell Viability Assay, A549. The following applies: Homo sapiens, 72 h incubation.
Source text: as §1, §2, §3, §4

For another assay, the system named is HCT-116 cells. The assay is described as follows: Cell growth, CellTiter-Glo Luminescent Cell Viability Assay, HCT-116. The following applies: Homo sapiens, 72 h incubation, read-out: IC50 HCT116.
Source text: as §1, §2, §3, §4

For the compound `Cc1ccc(C2CCCN(C(=O)/C=C/c3cccc(/C=C/C(=O)NO)c3)C2)cc1` (racemic) [Example 80, (±)-(E)-N-Hydroxy-3-{3-[(E)-3-oxo-3-(3-p-tolyl-piperidin-1-yl)-propenyl]-phenyl}-acrylamide], the half-maximal inhibitory concentration (IC50) in the assay on K562 cells, in the assay on A549 cells and in the assay with HCT-116 cells was at least 3 µM each time.
As for `O=C(/C=C/c1cccc(/C=C/C(=O)N2CCCC(c3ccccc3)C2)c1)NO` (racemic) [Example 83, (±)-(E)-N-Hydroxy-3-{3-[(E)-3-oxo-3-(3-phenyl-piperidin-1-yl)-propenyl]-phenyl}-acrylamide], the IC50 in the assay with K562 cells, in the assay on A549 cells and in the assay on HCT-116 cells was at least 3 µM throughout.
`O=C(/C=C/c1cccc(/C=C/C(=O)N2CCCC(c3ccc(F)cc3)C2)c1)NO` (racemic) [Example 84, (±)-(E)-3-(3-{(E)-3-[3-(4-Fluoro-phenyl)-piperidin-1-yl]-3-oxo-propenyl}-phenyl)-N-hydroxy-acrylamide]: the IC50 in the assay with K562 cells, in the assay on A549 cells and with HCT-116 cells was at least 3 µM each time.
In the case of `O=C(/C=C/c1cccc(/C=C/C(=O)N2CCN(c3ccccc3)CC2)c1)NO` [Example 3, (E)-N-Hydroxy-3-{3-[(E)-3-oxo-3-(4-phenyl-piperazin-1-yl)-propenyl]-phenyl}-acrylamide], the values for the 50% inhibitory concentration (IC50) in the assay on K562 cells, with A549 cells and in the assay with HCT-116 cells were at most 1 µM, 1 to 3 µM and at most 1 µM, respectively.
For `O=C(/C=C/c1ccc(/C=C/C(=O)N2CCN(c3ccccc3)CC2)cc1)NO` [Example 7, (E)-N-Hydroxy-3-{4-[(E)-3-oxo-3-(4-phenyl-piperazin-1-yl)-propenyl]-phenyl}-acrylamide], the IC50 in the assay on K562 cells, in the assay on A549 cells and with HCT-116 cells was at least 3 µM in each case.
Turning to `O=C(/C=C/c1ccc(/C=C/C(=O)N2CCN(c3ccccc3)CC2)cn1)NO` [Example 11, (E)-N-Hydroxy-3-{5-[(E)-3-oxo-3-(4-phenyl-piperazin-1-yl)-propenyl]-pyridin-2-yl}-acrylamide], the IC50 in the assay with K562 cells was 1 to 3 µM; in the assay with A549 cells, at least 3 µM; with HCT-116 cells, 1 to 3 µM.
Consider `O=C(/C=C/c1cccc(/C=C/C(=O)N2CCN(c3ccccc3)CC2)n1)NO` [Example 13, (E)-N-Hydroxy-3-{6-[(E)-3-oxo-3-(4-phenyl-piperazin-1-yl)-propenyl]-pyridin-2-yl}-acrylamide], for which the IC50 in the assay with K562 cells, in the assay with A549 cells and in the assay on HCT-116 cells was 1 to 3 µM throughout.
For `O=C(/C=C/c1cccc(/C=C/C(=O)N2CCN(c3cccc(Cl)c3)CC2)n1)NO` [Example 15, (E)-3-(6-{(E)-3-[4-(3-Chloro-phenyl)-piperazin-1-yl]-3-oxo-propenyl}-pyridin-2-yl)-N-hydroxy-acrylamide], the half-inhibitory concentration (IC50) in the assay on K562 cells was 1 to 3 µM; in the assay on A549 cells, at least 3 µM; with HCT-116 cells, 1 to 3 µM.
For `O=C(/C=C/c1cccc(/C=C/C(=O)N2CCN(C(=O)c3ccccc3)CC2)n1)NO` [Example 16, (E)-3-{6-[(E)-3-(4-Benzoyl-piperazin-1-yl)-3-oxo-propenyl]-pyridin-2-yl}-N-hydroxy-acrylamide hydrochloride], the IC50 in the assay with K562 cells, in the assay on A549 cells and with HCT-116 cells was at least 3 µM each time.
For `O=C(/C=C/c1cccc(/C=C/C(=O)N2CCC(Cc3ccccc3)CC2)n1)NO` [Example 17, (E)-3-{6-[(E)-3-(4-Benzyl-piperidin-1-yl)-3-oxo-propenyl]-pyridin-2-yl}-N-hydroxy-acrylamide hydrochloride], the IC50 with K562 cells, in the assay on A549 cells and with HCT-116 cells was 1 to 3 µM in each case.
For `O=C(/C=C/c1cccc(/C=C/C(=O)N2CCN(c3ccccc3Cl)CC2)n1)NO` [Example 18, (E)-3-(6-{(E)-3-[4-(2-Chloro-phenyl)-piperazin-1-yl]-3-oxo-propenyl}-pyridin-2-yl)-N-hydroxy-acrylamide hydrochloride], the half-maximal inhibitory concentration (IC50) was 1 to 3 µM in the assay on K562 cells, 1 to 3 µM with A549 cells and at most 1 µM with HCT-116 cells.
